Legend:
Assay in all cases: combination Emax (second highest fraction inhibited in the dose matrix, 72 h); higher = more inhibition; extreme values may be limits of the assay
[1] = system: KMRC-20 (Kidney Carcinoma)
In short: (§1)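 Cell lines grown in DMEM/F12 or RPMI with 10% FBS were plated in 1536-well plates and held 24 hours at 37°C, 5% CO2 before 72 hours of exposure to two-drug dose matrices, with DMSO typically at 0.2%. CellTiter-Glo 2.0 luminescence gave viability, which was converted to inhibition. Vehicle wells were set to 0 and blank wells to 1. Combination Emax is the second-highest inhibition in the matrix, and Bliss excess is the observed combination effect minus the expected EA + EB − EA·EB, where EA and EB are the single-agent effects.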

[2] = system: HeLa (Cervical Carcinoma)
In short: as §1

BE2-M17 (Neuroblastoma) = system: BE2-M17 (Neuroblastoma)
In short: as §1

CAL-72 (Osteosarcoma) = system: CAL-72 (Osteosarcoma)
In short: as §1

[3] = system: CAL-33 (Oral Cavity Carcinoma)
In short: as §1

[4] = system: NUGC-4 (Gastric Carcinoma)
In short: as §1

[5] = system: Hs-746T (Gastric Carcinoma)
In short: as §1

[6] = system: KYAE-1 (Esophageal Adenocarcinoma)
In short: as §1

[7] = system: Detroit562 (Head and Neck Carcinoma)
In short: as §1

[8] = system: SW1573 (Lung Adenocarcinoma)
In short: as §1

[9] = system: BFTC-909 (Kidney Carcinoma)
In short: as §1

[10] = system: MHH-CALL-2 (B-Lymphoblastic Leukemia)
In short: as §1

[11] = system: L-428 (Hodgkin's Lymphoma)
In short: as §1

[12] = system: NCI-H209 (Small Cell Lung Carcinoma)
In short: as §1

EW-11 (Ewing's Sarcoma) = system: EW-11 (Ewing's Sarcoma)
In short: as §1

BPH-1 (Non-Cancerous) = system: BPH-1 (Non-Cancerous)
In short: as §1

[13] = system: SAS (Oral Cavity Carcinoma)
In short: as §1

GAMG (Glioblastoma) = system: GAMG (Glioblastoma)
In short: as §1

MPP-89 (Mesothelioma) = system: MPP-89 (Mesothelioma)
In short: as §1

[14] = system: FTC-133 (Thyroid Gland Carcinoma)
In short: as §1

SMILES | combination Emax [1] | combination Emax [2] | combination Emax (BE2-M17 (Neuroblastoma)) | combination Emax (CAL-72 (Osteosarcoma)) | combination Emax [3] | combination Emax [4] | combination Emax [5] | combination Emax [6] | combination Emax [7] | combination Emax [8] | combination Emax [9] | combination Emax [10] | combination Emax [11] | combination Emax [12] | combination Emax (EW-11 (Ewing's Sarcoma)) | combination Emax (BPH-1 (Non-Cancerous)) | combination Emax [13] | combination Emax (GAMG (Glioblastoma)) | combination Emax (MPP-89 (Mesothelioma)) | combination Emax [14]
Cn1cnc2c(F)c(Nc3ccc(Br)cc3Cl)c(C(=O)NOCCO)cc21 [Selumetinib] + CCN(CCO)CCCOc1ccc2c(Nc3cc(CC(=O)Nc4cccc(F)c4)[nH]n3)ncnc2c1 [AZD2811] (first compound max 10 µM, 7x7, partner max 1 µM) | 0.29 | 0.171 | 0.644 | 0.181 | 0.653 | 0.472 | 0.478 | 0.0661 | 0.743 | 0.251 | 0.314 | 0.888 | 0.235 | 0.431 | 0.199 | 0.624 | 0.471 | 0.52 | 0.204 | 0.415
CC(=O)c1c(C)c2cnc(Nc3ccc(N4CCNCC4)cn3)nc2n(C2CCCC2)c1=O [Palbociclib] + Cn1cnc2c(F)c(Nc3ccc(Br)cc3Cl)c(C(=O)NOCCO)cc21 [Selumetinib] (first compound max 10 µM, 7x7, partner max 10 µM) | 0.158 | 0.104 | 0.606 | 0.361 | 0.382 | 0.392 | 0.49 | 0.124 | 0.588 | 0.164 | 0.358 | 0.31 | 0.395 | 0.594 | 0.168 | 0.518 | 0.711 | 0.314 | 0.14 | 0.202
CN(CCO)CC[C@H](CSc1ccccc1)Nc1ccc(S(=O)(=O)NC(=O)c2ccc(N3CCC([C@@H](O)c4ccccc4-c4ccc(Cl)cc4)CC3)cc2)cc1S(=O)(=O)C(F)(F)F [AZD4320] + C[C@@H](Nc1cc(F)cc(F)c1)c1cc(C(=O)N(C)C)cc2c(=O)cc(N3CCOCC3)oc12 [AZD8186] (first compound max 1 µM, 7x7, partner max 3 µM) | 0.381 | 0.359 | 0.722 | 0.487 | 0.714 | 0.564 | 0.677 | 0.387 | 0.666 | 0.577 | 0.595 | 0.917 | 0.748 | 1 | 0.938 | 0.733 | 0.77 | 0.615 | 0.494 | 0.803
Cn1cnc2c(F)c(Nc3ccc(Br)cc3Cl)c(C(=O)NOCCO)cc21 [Selumetinib] + C=CCn1c(=O)c2cnc(Nc3ccc(N4CCN(C)CC4)cc3)nc2n1-c1cccc(C(C)(C)O)n1 [AZD1775] (first compound max 10 µM, partner max 1 µM) | 0.567 | 0.437 | 0.887 | 0.519 | 0.836 | 0.526 | 0.636 | 0.116 | 0.639 | 0.361 | 0.646 | 0.793 | 0.808 | 0.858 | 0.42 | 0.535 | 0.678 | 0.527 | 0.566 | 0.778
CN(CCO)CC[C@H](CSc1ccccc1)Nc1ccc(S(=O)(=O)NC(=O)c2ccc(N3CCC([C@@H](O)c4ccccc4-c4ccc(Cl)cc4)CC3)cc2)cc1S(=O)(=O)C(F)(F)F [AZD4320] + Cn1cnc2c(F)c(Nc3ccc(Br)cc3Cl)c(C(=O)NOCCO)cc21 [Selumetinib] (first compound max 1 µM, 7x7, partner max 3 µM) | 0.261 | 0.397 | 0.852 | 0.51 | 0.701 | 0.766 | 0.77 | 0.377 | 0.637 | 0.575 | 0.473 | 0.965 | 0.737 | 1 | 0.934 | 0.784 | 0.83 | 0.296 | 0.399 | 0.74
CC1(C)CCC(CN2CCN(c3ccc(C(=O)NS(=O)(=O)c4ccc(NCC5CCOCC5)c([N+](=O)[O-])c4)c(Oc4cnc5[nH]ccc5c4)c3)CC2)=C(c2ccc(Cl)cc2)C1 [Venetoclax] + C1CN(CCC1(C(=O)N[C@@H](CCO)C2=CC=C(C=C2)Cl)N)C3=NC=NC4=C3C=CN4 [Capivasertib] (first compound max 1 µM, 7x7, partner max 3 µM) | 0.294 | 0.22 | 0.254 | 0.554 | 0.276 | 0.121 | 0.275 | 0.407 | 0.346 | 0.257 | 0.554 | 0.106 | 0.0426 | 0.456 | 0.711 | 0.382 | 0.286 | 0.505 | 0.375 | 0.358
COc1cccc(OCCCN)c1-c1cc(Nc2cnc(C#N)cn2)n[nH]1 [Prexasertib] + CCc1c2c(nc3ccc(O)cc13)-c1cc3c(c(=O)n1C2)COC(=O)[C@]3(O)CC [SN-38] (first compound max 1 µM, 7x7, partner max 0.3 µM) | 0.982 | 0.865 | 0.999 | 0.949 | 0.957 | 0.484 | 0.813 | 0.79 | 1 | 0.925 | 0.996 | 1 | 0.979 | 1 | 0.749 | 0.972 | 0.999 | 0.993 | 0.897 | 1
COc1nnc2ccc(N3CCC(c4ccc(OCCN5CCN(C)C(=O)[C@H]5C)cc4)CC3)nn12 [AZD5153] + CCN(CCO)CCCOc1ccc2c(Nc3cc(CC(=O)Nc4cccc(F)c4)[nH]n3)ncnc2c1 [AZD2811] (first compound max 1 µM, 7x7, partner max 1 µM) | 0.414 | 0.433 | 0.644 | 0.503 | 0.609 | 0.557 | 0.572 | 0.0877 | 0.892 | 0.504 | 0.535 | 0.5 | 0.845 | 0.458 | 0.452 | 0.844 | 0.819 | 0.609 | 0.467 | 0.678
NC1(C(=O)N[C@@H](CCO)c2ccc(Cl)cc2)CCN(c2ncnc3[nH]ccc23)CC1 [Capivasertib] + CC(=O)c1c(C)c2cnc(Nc3ccc(N4CCNCC4)cn3)nc2n(C2CCCC2)c1=O [Palbociclib] (first compound max 10 µM, 7x7, partner max 10 µM) | 0.372 | 0.196 | 0.463 | 0.481 | 0.499 | 0.305 | 0.588 | 0.162 | 0.783 | 0.382 | 0.704 | 0.216 | 0.436 | 0.603 | 0.496 | 0.518 | 0.575 | 0.596 | 0.382 | 0.565
Cc1c2c(nn1C)CSCc1cc(n(C)n1)CSc1cc(c3ccccc3c1)OCCCc1c(C(=O)O)n(C)c3c-2c(Cl)ccc13 [AZD5991] + CC1(C)CCC(CN2CCN(c3ccc(C(=O)NS(=O)(=O)c4ccc(NCC5CCOCC5)c([N+](=O)[O-])c4)c(Oc4cnc5[nH]ccc5c4)c3)CC2)=C(c2ccc(Cl)cc2)C1 [Venetoclax] (first compound max 1 µM, 7x7, partner max 1 µM) | 0.162 | 0.794 | 0.915 | 0.423 |  | 0.178 | 0.203 | 0.225 | 0.156 | 0.177 | 0.239 | 0.983 | 0.158 | 0.996 | 0.975 | 0.353 | 0.184 | 0.315 | 0.171 | 0.677
CN(C)CCCOc1ccc(-c2ccc3ncc4c(c3c2)n(C2CCOCC2)c(=O)n4C)cn1 [AZD0156] + O=C(c1cc(Cc2n[nH]c(=O)c3ccccc23)ccc1F)N1CCN(C(=O)C2CC2)CC1 [Olaparib] (first compound max 3 µM, partner max 3 µM) | 0.189 | 0.131 | 0.331 | 0.416 | 0.352 | 0.286 | 0.378 | 0.271 | 0.435 | 0.162 | 0.527 | 0.228 | 0.228 | 0.792 | 0.539 | 0.512 | 0.212 | 0.336 | 0.235 | 
C=CCn1c(=O)c2cnc(Nc3ccc(N4CCN(C)CC4)cc3)nc2n1-c1cccc(C(C)(C)O)n1 [AZD1775] + C1CN(CCC1(C(=O)N[C@@H](CCO)C2=CC=C(C=C2)Cl)N)C3=NC=NC4=C3C=CN4 [Capivasertib] (first compound max 3 µM, partner max 3 µM) | 0.711 | 0.877 | 0.906 | 0.845 | 0.929 | 0.574 | 0.772 | 0.579 | 0.92 | 0.572 | 0.922 | 0.869 | 0.759 | 0.873 | 0.69 | 0.929 | 0.798 | 0.829 | 0.685 | 
COc1cccc(OCCCN)c1-c1cc(Nc2cnc(C#N)cn2)n[nH]1 [Prexasertib] + C=CCn1c(=O)c2cnc(Nc3ccc(N4CCN(C)CC4)cc3)nc2n1-c1cccc(C(C)(C)O)n1 [AZD1775] (first compound max 1 µM, partner max 1 µM) | 0.885 | 0.91 | 0.998 | 0.891 | 0.916 | 0.555 | 0.78 | 0.795 | 0.949 | 0.582 | 0.977 |  | 0.955 | 0.988 | 0.683 | 0.809 | 0.969 | 0.951 | 0.826 | 0.858
